Measured values as given in publication PMC8453936, “Development and in vitro Profiling of Dual FXR/LTA4H Modulators” (Chemmedchem, 2021).

Legend:
[1] = biological target: T1, recombinant human LTA4H (Homo sapiens, UniProt P09960); settings: for LTA4H max. inhib.: LTA4H inhibition at the highest tested concentration (up to 100 μM), mean±S.E.M., n=3
T1 sequence (P09960 1-611): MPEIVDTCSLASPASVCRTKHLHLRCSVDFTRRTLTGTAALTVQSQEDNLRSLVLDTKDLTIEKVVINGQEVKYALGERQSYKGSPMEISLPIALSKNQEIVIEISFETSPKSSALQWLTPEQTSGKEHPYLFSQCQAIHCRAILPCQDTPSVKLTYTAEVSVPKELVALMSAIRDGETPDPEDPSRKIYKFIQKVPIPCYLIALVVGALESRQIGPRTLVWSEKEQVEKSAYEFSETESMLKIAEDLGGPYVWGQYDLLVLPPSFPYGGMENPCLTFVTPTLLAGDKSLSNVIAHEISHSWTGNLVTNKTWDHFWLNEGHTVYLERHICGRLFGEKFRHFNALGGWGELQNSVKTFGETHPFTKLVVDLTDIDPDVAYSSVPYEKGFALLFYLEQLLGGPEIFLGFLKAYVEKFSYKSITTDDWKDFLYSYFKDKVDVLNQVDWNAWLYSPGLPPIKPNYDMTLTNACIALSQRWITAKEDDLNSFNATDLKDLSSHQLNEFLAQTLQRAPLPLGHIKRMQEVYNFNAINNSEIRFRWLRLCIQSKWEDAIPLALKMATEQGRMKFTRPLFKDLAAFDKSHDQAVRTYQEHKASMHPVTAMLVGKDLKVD
Source text: FXR modulation by 3–20 was characterized in a cellular (HeLa, transiently transfected) full‐length FXR reporter gene assay employing the human FXR response element from the promoter region of bile salt export protein (BSEP) to govern firefly luciferase expression as reporter gene.[26, 27] FXR and its natural heterodimer partner retinoid X receptor (RXR) were constitutively over‐expressed and a constitutively expressed renilla luciferase was present as internal control for transfection efficiency and cellular health.
LTA4H assay. […] The assay was performed in black polystyrol 96‐well plates in a final volume of 100 μL. Test compound solution in DMSO (1 μL) or DMSO alone as control were incubated with 89 μl protein mixture (containing LTA4H, buffer and Triton‐X‐100). After 30 min, 10 μl of substrate mixture (containing L‐arginin‐7‐amido‐4‐methylcumarine and DMSO in buffer) were added. […] A blank measurement containing no protein was performed and treated as 0 % conversion control. All samples were measured in triplicates and each experiment was conducted in three independent repeats.

[2] = biological target: T2, recombinant human sEH (Homo sapiens, UniProt P34913); experiment: sEH activity assay with PHOME as fluorogenic substrate; format: biochemical; settings: mean±S.E.M., n=3
T2 construct: Human sEH full length protein was purified as described by Lukin et al; made in house; host or cells: E. coli BL21 (DE3)
T2 sequence (P34913 1-555): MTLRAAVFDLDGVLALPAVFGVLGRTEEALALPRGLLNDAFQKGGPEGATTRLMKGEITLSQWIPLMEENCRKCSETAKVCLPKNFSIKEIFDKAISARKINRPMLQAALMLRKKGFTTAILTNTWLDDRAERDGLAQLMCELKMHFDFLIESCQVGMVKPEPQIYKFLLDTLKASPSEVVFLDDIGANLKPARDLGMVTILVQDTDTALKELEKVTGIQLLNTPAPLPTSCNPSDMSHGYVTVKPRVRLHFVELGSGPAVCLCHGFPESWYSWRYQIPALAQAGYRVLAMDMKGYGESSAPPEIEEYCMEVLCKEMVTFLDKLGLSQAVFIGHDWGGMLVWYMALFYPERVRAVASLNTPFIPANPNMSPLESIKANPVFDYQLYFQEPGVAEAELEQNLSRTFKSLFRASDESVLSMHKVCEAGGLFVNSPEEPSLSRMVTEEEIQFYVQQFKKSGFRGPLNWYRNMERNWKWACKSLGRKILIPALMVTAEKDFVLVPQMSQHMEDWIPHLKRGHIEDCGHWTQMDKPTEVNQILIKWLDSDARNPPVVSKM

[3] = biological target: T3, full-length human FXR (Homo sapiens, UniProt Q96RI1); settings: mean±S.E.M., n≥3, previously reported, cited from earlier work
T3 construct: coding for the full‐length human nuclear receptors FXR and RXRα; expressed in transfected cells; host or cells: HeLa
T3 sequence (Q96RI1 1-486): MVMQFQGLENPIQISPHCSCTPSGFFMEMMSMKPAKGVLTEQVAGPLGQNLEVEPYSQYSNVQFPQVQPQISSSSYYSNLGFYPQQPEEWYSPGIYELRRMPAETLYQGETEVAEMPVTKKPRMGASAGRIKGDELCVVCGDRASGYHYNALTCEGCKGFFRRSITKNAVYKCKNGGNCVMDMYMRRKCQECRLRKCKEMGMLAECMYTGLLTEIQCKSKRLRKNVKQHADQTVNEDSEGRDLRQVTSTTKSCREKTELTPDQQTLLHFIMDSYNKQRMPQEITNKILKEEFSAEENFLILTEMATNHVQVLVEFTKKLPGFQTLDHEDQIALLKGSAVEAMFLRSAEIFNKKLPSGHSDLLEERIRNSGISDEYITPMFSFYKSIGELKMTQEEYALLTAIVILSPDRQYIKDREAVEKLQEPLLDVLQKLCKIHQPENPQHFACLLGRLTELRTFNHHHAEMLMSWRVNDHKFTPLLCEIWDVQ
T3 sequence (P19793 1-462 partner): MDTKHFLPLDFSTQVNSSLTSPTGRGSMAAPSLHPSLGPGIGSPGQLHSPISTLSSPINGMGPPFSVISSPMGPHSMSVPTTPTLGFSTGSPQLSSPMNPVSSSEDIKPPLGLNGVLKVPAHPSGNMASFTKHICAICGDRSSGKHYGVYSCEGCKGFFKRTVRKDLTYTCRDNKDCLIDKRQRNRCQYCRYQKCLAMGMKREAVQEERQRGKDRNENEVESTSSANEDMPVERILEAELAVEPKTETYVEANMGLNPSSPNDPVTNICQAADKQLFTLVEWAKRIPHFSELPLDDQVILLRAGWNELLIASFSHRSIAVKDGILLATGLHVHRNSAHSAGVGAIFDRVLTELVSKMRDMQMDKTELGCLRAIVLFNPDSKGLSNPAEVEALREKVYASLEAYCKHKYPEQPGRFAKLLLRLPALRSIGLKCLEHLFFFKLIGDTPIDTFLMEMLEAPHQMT

SMILES: O=C(O)c1cccc(NC(=O)c2ccc(OCCCc3ccccc3)cc2)c1 [compound 8]
- IC50 [1]: 140 ± 10 nM
- LTA4H max. inhib. [1]: 98.8±0.1%
- sEH inhibition ([2]; at 100 μM): 6±1 % inhibition at 100 μM
- FXR efficacy (maximum FXR activation relative to 3 μM GW4064) ([3]; 3 μM GW4064 = 100 % activation): 22±1%
- EC50 ([3]; full-length FXR reporter gene assay, BSEP promoter, HeLa): 29 ± 6 nM

SMILES: O=C(O)c1ccnc(NC(=O)c2ccc(OCCCc3ccccc3)cc2)c1 [compound 19, 2‐(4‐(3‐Phenylpropoxy)benzamido)isonicotinic acid]
- IC50 [1]: 450 ± 20 nM
- LTA4H max. inhib. [1]: 98.9±0.1%
- IC50 ([2]; read-out: sEH inhibition IC50): 68000 nM
